# Reference: paper PMC10747112, “Triphenylphosphine Derivatives of Allylbenzenes Express Antitumor and Adjuvant Activity When Solubilized with Cyclodextrin-Based Formulations” (Pharmaceuticals, 2023)
# System: HEK293T cells
# Experiment: FTIR spectroscopy of HEK293T cells during incubation with drug (penetration/adsorption)
# Type: cell-based, human
# Conditions: 60 min incubation (apiol-PPh3 in M-β-CD) or pre-incubation (doxorubicin controls); 37 °C
# Description: The main cell structural units that contribute to the absorption of IR diapason can be assigned as follows (Figure 5): lipids of the cell membrane (2800–3000 cm^−1), proteins, especially transmembrane (1500–1700 cm^−1), phosphate groups of DNA (1240 cm^−1) and carbohydrates, including lipopolysaccharides (900–1100 cm^−1). Previously, we developed a technique for tracking the penetration and adsorption of the drug into cells using FTIR spectroscopy: dramatic changes in the intensity of the peaks of amide 1 and amide 2 indicate effective penetration of the drug into cells and vice versa.
# Here, we present the real-time data of FTIR spectroscopy during the incubation of a suspension of HEK293T cells with apiol-PPh3 in M-β-CD (Figure 5). […] There is only a shift of the peak of amide 1 to the low-frequency region (inserts in Figure 5, the normalized intensity is shown) and amide 2 to the high-frequency region with the simultaneous appearance of the shoulder. This indicates the only adsorption of drug molecules on the cell surface, which is also confirmed by a weak increase in the intensity of the peaks at 2850–3000 cm^−1 corresponding to the valence vibrations of the CH2 groups (lipid bilayer). Thus, PPh3 derivatives show only marginal activity against normal cells.
structure (smiles),measurement,value
COc1cc(CCC[P+](c2ccccc2)(c2ccccc2)c2ccccc2)c(OC)c2c1OCO2 [Apiol-PPh3],changes in FTIR amide I and II peak intensity of HEK293T cells (drug penetration),practically no changes in the intensity of the peaks of amide I and II
